Assay results published in patent US4771060A, “Novel skin-whitening agent” (Teikoku Seiyaku Kabushiki Kaisha, priority 1986, dated 1988).

Columns and labels:
[1] = Acute toxicity, oral, rats; details: rat, in vivo, suspension in 0.5% sodium carboxymethylcellulose, 7 days
Method: A suspension of pionine in a 0.5% sodium carboxymethylcellulose solution was orally administered to Wistar rats (weighing about 130 g, one group: ten animal) with a stomach sonde. The number of dead rats were counted for 7 days, and LD50 (g/kg) was calculated by van der Werden's method. […] Thus, it is clear that pionine is a compound having an extremely wide safety range, taking into account the above experimental results that it is effective in a concentration of 10 μg/l for preventing and treating melanism of goldfish.

[2] = tested on: stains (chloasma) and pigmentations induced by inflammation; experiment: Clinical test, oral pionine; assay type: in vivo, human; set-up: key to Findings on skin: -1: deepened; 0: not changed; +1: faded; +2: completely disappeared
Method: A hundred μg of pionine was orally administered to each of three patients having stains (chloasma) and each of three patients having pigmentations induced by inflammation, once a day when the patients were hungry. This test was continued for 6 months. The effect of pionine was evaluated and classified into four classes by the degree of color as follows:
-1: deepened, 0: not changed, +1: faded,
+2: completely disappeared.
Evaluation by the patients themselves is also mentioned therein. Meanwhile, a patch test as to known cosmetics which were used by the patients was made for all patients before the clinical test, and if the result was positive (i.e. the known cosmetics are […]), the use of the cosmetics was prohibited.

[3] = tested on: surface melanism in yellow goldfish; experiment: Therapeutic effect on surface melanism in yellow goldfish; assay type: in vivo, goldfish (Ryukins); details: for goldfish returned to their original yellow surface color: after 12 weeks, control 0%
Method: Ryukins (weighing 3-5 g) were fed in a 0.9% NaCl aqueous solution for 12 days to induce surface melanism. The goldfish were grouped into five fish each. In two experiment groups, the fish were fed in a water bath for 12 weeks, during which pionine was add in an amount of 1 μg/l and 10 μg/l, respectively, three times per week. In the control group, the fish were fed in pure water. The recovery from surface melanism of the experiment groups was compared with that of control group.

[4] = tested on: yellow goldfish; experiment: Toxicity in yellow goldfish; assay type: in vivo; details: 5 mg/l in water for three days, ten yellow goldfish
[5] = tested on: tyrosinase derived from mushroom; experiment: Direct effect on tyrosinase activity (L-DOPA substrate); assay type: biochemical
Method: The direct effect of pionine to tyrosinase activity was studied. 0.1 ml of a solution of pionine having various concentrations was mixed with 0.1 ml of 290 unit/ml solution of tyrosinase derived from mushroom (Sigma). […]

[6] = tested on: surface melanism in yellow goldfish; experiment: Preventive effect on surface melanism in yellow goldfish; assay type: in vivo, goldfish (Ryukins); details: then 0.9% NaCl 12 days, 12th day, 5 fish, control 100%
Method: (§1) Ryukins [a kind of goldfish (weighing 3-5 g, one group: 5 fish)] were fed in water containing 1 μg/l or 10 μg/l of pionine (No. 1 compound in the above Preparations) for 20 days. The goldfish were then transferred into a water bath filled with water containing 0.9% by weight of NaCl in order to induce melanism and fed for 12 days. As a control group, the fish were fed likewise except no active compound was used. The extent of surface melanism and the activity of tyrosinase in the group administered with pionine were compared with those of the control group.

[7] = tested on: tyrosinase; experiment: Determination of tyrosinase activity in scales of treated goldfish; assay type: in vivo, goldfish (Ryukins); details: scales on 12th day, control 0.06
Method: as §1
As samples to be tested, scales were picked from goldfish of each of groups on 12th day. The samples were each homogenized with 1M phosphate buffer (pH 6.8) and centrifuged. As to the supernatant, tyrosinase was determined by a colorimetry according to the procedure of N. H. Horowitz and Pomerantz (cf. Method in Enzymology, XVIIA, 615-626).

[8] = tested on: Black popeyed goldfish; experiment: Action in normal black-goldfish; assay type: in vivo; details: 10 μg/l three times per week, after 12 weeks
Method: Black popeyed goldfish (each group: 5 fish) were fed in a water bath. In experimental group, pionine was added to the water bath in a concentration of 10 μg/l, three times per week. In the control group, no pionine was added.

Question: Which LD50 at 168 h ([1]; female Wistar rats) does the source give for `CCCCCCCN1C(C)=CSC1=Cc1scc(C)[n+]1CCCCCCC` [pionine, 4,4'-dimethyl-3,3'-di-n-heptyl-2,2'-monomethinethiazolocyanine iodide] here?
Answer: 500 mg/kg

Question: And the LD50 at 168 h ([1]; male Wistar rats)?
Answer: 470 mg/kg

Question: What about the “patients with positive effect” value ([2]; 5/6 patients, 100 μg orally once a day, 6 months) of the same compound?
Answer: 83%

Question: What about the Side effect ([2]; Run No. 1, 100 μg orally once a day) of the same compound?
Answer: No

Question: What about the Evaluation by patients ([2]; Run No. 1, Chloasma) of the same compound?
Answer: effective

Question: What about the Findings on skin ([2]; Run No. 1, Chloasma, 100 μg orally once a day, at 4th month) of the same compound?
Answer: +2

Question: And the Evaluation by patients ([2]; Run No. 2, Chloasma)?
Answer: not effective

Question: And the Findings on skin ([2]; Run No. 2, Chloasma, 100 μg orally once a day, at 6th month)?
Answer: 0

Question: What about the Evaluation by patients ([2]; Run No. 3, Chloasma) of the same compound?
Answer: effective

Question: What about the Findings on skin ([2]; Run No. 3, Chloasma, 100 μg orally once a day, at 5th month) of the same compound?
Answer: +2

Question: And the Findings on skin ([2]; Run No. 4, Pigmentation after inflammation, 100 μg orally once a day, at 3rd month)?
Answer: +2

Question: And the Findings on skin ([2]; Run No. 5, Pigmentation after inflammation, 100 μg orally once a day, at 5th month)?
Answer: +2

Question: What about the Findings on skin ([2]; Run No. 6, Pigmentation after inflammation, 100 μg orally once a day, at 3rd month) of the same compound?
Answer: +1

Question: What about the “side effect in all patients” value ([2]; six patients, 100 μg orally once a day, 6 months) of the same compound?
Answer: no side effect was observed

Question: And the “goldfish returned to their original yellow surface color” value ([3]; 1 μg/l three times per week)?
Answer: 40%

Question: What about the “goldfish returned to their original yellow surface color” value ([3]; 10 μg/l three times per week) of the same compound?
Answer: 80%

Question: What about the “recovery from surface melanism” value ([3]; 1 and 10 μg/l groups, within three weeks) of the same compound?
Answer: not observed

Question: And the abnormality [4]?
Answer: no abnormality was observed

Question: What about the death of fish [4] of the same compound?
Answer: no fish was died

Question: What about the “effect on tyrosinase activity” value ([5]; addition of 5×10^-2 to 10^-5 % of pionine) of the same compound?
Answer: did not affect

Question: What about the tyrosinase inhibitory activity ([5]; direct effect, summary statement) of the same compound?
Answer: no tyrosinase inhibitory activity

Question: And the “ΔOD (at 475 nm)” value ([5]; pionine 5 × 10^-2 %, 2 min., control 0.250)?
Answer: 0.248

Question: And the “ΔOD (at 475 nm)” value ([5]; pionine 5 × 10^-2 %, 5 min., control 0.540)?
Answer: 0.540

Question: What about the “ΔOD (at 475 nm)” value ([5]; pionine 5 × 10^-2 %, 10 min., control 0.782) of the same compound?
Answer: 0.786

Question: And the “ΔOD (at 475 nm)” value ([5]; pionine 5 × 10^-3 %, 2 min., control 0.250)?
Answer: 0.252

Question: What about the “ΔOD (at 475 nm)” value ([5]; pionine 5 × 10^-3 %, 5 min., control 0.540) of the same compound?
Answer: 0.544

Question: What about the “ΔOD (at 475 nm)” value ([5]; pionine 5 × 10^-3 %, 10 min., control 0.782) of the same compound?
Answer: 0.780

Question: What about the “ΔOD (at 475 nm)” value ([5]; pionine 5 × 10^-4 %, 2 min., control 0.250) of the same compound?
Answer: 0.252

Question: What about the “ΔOD (at 475 nm)” value ([5]; pionine 5 × 10^-4 %, 5 min., control 0.540) of the same compound?
Answer: 0.540

Question: What about the “ΔOD (at 475 nm)” value ([5]; pionine 5 × 10^-4 %, 10 min., control 0.782) of the same compound?
Answer: 0.784

Question: What about the “ΔOD (at 475 nm)” value ([5]; pionine 5 × 10^-5 %, 2 min., control 0.250) of the same compound?
Answer: 0.250

Question: What about the “ΔOD (at 475 nm)” value ([5]; pionine 5 × 10^-5 %, 5 min., control 0.540) of the same compound?
Answer: 0.538

Question: What about the “ΔOD (at 475 nm)” value ([5]; pionine 5 × 10^-5 %, 10 min., control 0.782) of the same compound?
Answer: 0.780

Question: And the “fish with surface melanism observed” value ([6]; 1 μg/l in water for 20 days)?
Answer: 40%

Question: What about the “fish with surface melanism observed” value ([6]; 10 μg/l in water for 20 days) of the same compound?
Answer: none

Question: And the “tyrosinase activity, ΔOD at 475 nm/mg protein/30 min” value ([7]; 1 μg/l group)?
Answer: 0.05 /mg protein/30 min

Question: And the “tyrosinase activity, ΔOD at 475 nm/mg protein/30 min” value ([7]; 10 μg/l group)?
Answer: 0.02 /mg protein/30 min

Question: What about the “blackness of normal black goldfish versus control” value [8] of the same compound?
Answer: no differences were observed
